Source: ChEMBL document CHEMBL3885861, “Open TG-GATES”

Species on record: Rattus norvegicus
Assay: Open TG-GATES - Regimen: Daily Repeat
Format: toxicity, organism-based, Sprague-Dawley
Set-up: regimen Daily Repeat, gender Male, age 6 weeks
Conditions: in vivo, po, 100 mg/kg, route gavage, dose level High; for APTT / Bas / Eos / Fbg / Hb / Ht / Lym / MCH / MCHC / MCV / Mono / Neu / PT / Plat / RBC / Ret / WBC: tissue Blood; for KIDNEY_L / KIDNEY_R / KIDNEY_TOTAL: tissue Kidney; for LIVER: tissue Liver; for A/G / ALP / ALT / AST / BUN / CRE / Ca / Cl / DBIL / GLC / IP / K / LDH / Na / PL / RALB / TBIL / TC / TG / TP / gamma-GTP: tissue Plasma

SMILES: OCCOCCN1CCN(C(c2ccccc2)c2ccc(Cl)cc2)CC1 (configuration not stated) [HYDROXYZINE]
- TERMINAL_BW (72 h, time 3 day): 215.1 g
- APTT (72 h, time 3 day): 17.1 s
- Bas (72 h, time 3 day): 0%
- Eos (72 h, time 3 day): 0.8%
- Fbg (72 h, time 3 day): 297 mg/dL
- Hb (72 h, time 3 day): 13.6 g/dL
- Ht (72 h, time 3 day): 40.5%
- Lym (72 h, time 3 day): 73.4%
- MCH (72 h, time 3 day): 20.9 pg
- MCHC (72 h, time 3 day): 33.5%
- MCV (72 h, time 3 day): 62.5 fL
- Mono (72 h, time 3 day): 3.2%
- Neu (72 h, time 3 day): 21.8%
- PT (72 h, time 3 day): 15.7 s
- Plat (72 h, time 3 day): 128.8 x10_4/uL
- RBC (72 h, time 3 day): 648.2 x10_4/ul
- Ret (72 h, time 3 day): 5.3%
- WBC (72 h, time 3 day): 97.2 x10_2/uL
- KIDNEY_L (72 h, time 3 day): 1 g
- KIDNEY_R (72 h, time 3 day): 1 g
- KIDNEY_TOTAL (72 h, time 3 day): 2 g
- LIVER (72 h, time 3 day): 11.2 g
- A/G (72 h, time 3 day): 0.8
- ALP (72 h, time 3 day): 2293.8 IU/L
- ALT (72 h, time 3 day): 42.6 IU/L
- AST (72 h, time 3 day): 72.8 IU/L
- BUN (72 h, time 3 day): 17.6 mg/dL
- CRE (72 h, time 3 day): 0.2 mg/dL
- Ca (72 h, time 3 day): 10.9 mg/dL
- Cl (72 h, time 3 day): 104.8 meq/L
- DBIL (72 h, time 3 day): 0.016 mg/dL
- GLC (72 h, time 3 day): 170.8 mg/dL
- IP (72 h, time 3 day): 7.8 mg/dL
- K (72 h, time 3 day): 3.9 meq/L
- LDH (72 h, time 3 day): 56.2 IU/L
- Na (72 h, time 3 day): 142.6 meq/L
- PL (72 h, time 3 day): 126.2 mg/dL
- RALB (72 h, time 3 day): 2.6 g/dL
- TBIL (72 h, time 3 day): 0.05 mg/dL
- TC (72 h, time 3 day): 67.8 mg/dL
- TG (72 h, time 3 day): 62.6 mg/dL
- TP (72 h, time 3 day): 5.6 g/dL
- gamma-GTP (72 h, time 3 day): 1 IU/L
- TERMINAL_BW ([…], time 7 day): 246 g
- TERMINAL_BW ([…], time 14 day): 300.3 g
- TERMINAL_BW ([…], time 28 day): 378.6 g
- APTT ([…], time 7 day): 18 s
- Bas ([…], time 7 day): 0%
- Eos ([…], time 7 day): 0.8%
- Fbg ([…], time 7 day): 297 mg/dL
- Hb ([…], time 7 day): 13.6 g/dL
- Ht ([…], time 7 day): 40.3%
- Lym ([…], time 7 day): 81%
- MCH ([…], time 7 day): 21 pg
- MCHC ([…], time 7 day): 33.7%
- MCV ([…], time 7 day): 62.3 fL
- Mono ([…], time 7 day): 2.2%
- Neu ([…], time 7 day): 15.4%
- PT ([…], time 7 day): 15.5 s
- Plat ([…], time 7 day): 109.3 x10_4/uL
- RBC ([…], time 7 day): 647.2 x10_4/ul
- Ret ([…], time 7 day): 4.6%
- WBC ([…], time 7 day): 79.7 x10_2/uL
- APTT ([…], time 14 day): 18.5 s
- Bas ([…], time 14 day): 0.4%
- Eos ([…], time 14 day): 1%
- Fbg ([…], time 14 day): 300.4 mg/dL
- Hb ([…], time 14 day): 13.7 g/dL
- Ht ([…], time 14 day): 40.2%
- Lym ([…], time 14 day): 78%
- MCH ([…], time 14 day): 20 pg
- MCHC ([…], time 14 day): 34.2%
- MCV ([…], time 14 day): 58.5 fL
- Mono ([…], time 14 day): 3%
- Neu ([…], time 14 day): 16.6%
- PT ([…], time 14 day): 16.2 s
- Plat ([…], time 14 day): 124.9 x10_4/uL
- RBC ([…], time 14 day): 686.4 x10_4/ul
- Ret ([…], time 14 day): 5.2%
- WBC ([…], time 14 day): 128.4 x10_2/uL
- APTT ([…], time 28 day): 22.4 s
- Bas ([…], time 28 day): 0.4%
- Eos ([…], time 28 day): 0.8%
- Fbg ([…], time 28 day): 290.2 mg/dL
- Hb ([…], time 28 day): 14.7 g/dL
- Ht ([…], time 28 day): 42.3%
- Lym ([…], time 28 day): 79.6%
- MCH ([…], time 28 day): 18.5 pg
- MCHC ([…], time 28 day): 34.8%
- MCV ([…], time 28 day): 53.1 fL
- Mono ([…], time 28 day): 2.4%
- Neu ([…], time 28 day): 16.8%
- PT ([…], time 28 day): 15.7 s
- Plat ([…], time 28 day): 109.6 x10_4/uL
- RBC ([…], time 28 day): 796.6 x10_4/ul
- Ret ([…], time 28 day): 2.9%
- WBC ([…], time 28 day): 135.7 x10_2/uL
- KIDNEY_L ([…], time 7 day): 1.1 g
- KIDNEY_R ([…], time 7 day): 1.1 g
- KIDNEY_TOTAL ([…], time 7 day): 2.2 g
- KIDNEY_L ([…], time 14 day): 1.3 g
- KIDNEY_R ([…], time 14 day): 1.4 g
- KIDNEY_TOTAL ([…], time 14 day): 2.7 g
- KIDNEY_L ([…], time 28 day): 1.6 g
- KIDNEY_R ([…], time 28 day): 1.5 g
- KIDNEY_TOTAL ([…], time 28 day): 3.2 g
- LIVER ([…], time 7 day): 15.2 g
- LIVER ([…], time 14 day): 18.1 g
- LIVER ([…], time 28 day): 21.7 g
- A/G ([…], time 7 day): 0.8
- ALP ([…], time 7 day): 2036.8 IU/L
- ALT ([…], time 7 day): 34 IU/L
- AST ([…], time 7 day): 61.4 IU/L
- BUN ([…], time 7 day): 18 mg/dL
- CRE ([…], time 7 day): 0.2 mg/dL
- Ca ([…], time 7 day): 11 mg/dL
- Cl ([…], time 7 day): 104.6 meq/L
- DBIL ([…], time 7 day): 0.018 mg/dL
- GLC ([…], time 7 day): 186 mg/dL
- IP ([…], time 7 day): 7.9 mg/dL
- K ([…], time 7 day): 4.4 meq/L
- LDH ([…], time 7 day): 62 IU/L
- Na ([…], time 7 day): 141.6 meq/L
- PL ([…], time 7 day): 138.2 mg/dL
- RALB ([…], time 7 day): 2.6 g/dL
- TBIL ([…], time 7 day): 0.046 mg/dL
- TC ([…], time 7 day): 76.8 mg/dL
- TG ([…], time 7 day): 55 mg/dL
- TP ([…], time 7 day): 5.8 g/dL
- gamma-GTP ([…], time 7 day): 0.8 IU/L
- A/G ([…], time 14 day): 0.8
- ALP ([…], time 14 day): 2097.8 IU/L
- ALT ([…], time 14 day): 39.6 IU/L
- AST ([…], time 14 day): 66 IU/L
- BUN ([…], time 14 day): 17.2 mg/dL
- CRE ([…], time 14 day): 0.2 mg/dL
- Ca ([…], time 14 day): 10.7 mg/dL
- Cl ([…], time 14 day): 102.8 meq/L
- DBIL ([…], time 14 day): 0.018 mg/dL
- GLC ([…], time 14 day): 193 mg/dL
- IP ([…], time 14 day): 7.6 mg/dL
- K ([…], time 14 day): 4 meq/L
- LDH ([…], time 14 day): 94.4 IU/L
- Na ([…], time 14 day): 141.4 meq/L
- PL ([…], time 14 day): 141.4 mg/dL
- RALB ([…], time 14 day): 2.7 g/dL
- TBIL ([…], time 14 day): 0.044 mg/dL
- TC ([…], time 14 day): 75 mg/dL
- TG ([…], time 14 day): 62.4 mg/dL
- TP ([…], time 14 day): 5.9 g/dL
- gamma-GTP ([…], time 14 day): 0.8 IU/L
- A/G ([…], time 28 day): 0.8
- ALP ([…], time 28 day): 1321.8 IU/L
- ALT ([…], time 28 day): 33.2 IU/L
- AST ([…], time 28 day): 58.8 IU/L
- BUN ([…], time 28 day): 17.8 mg/dL
- CRE ([…], time 28 day): 0.2 mg/dL
- Ca ([…], time 28 day): 10.9 mg/dL
- Cl ([…], time 28 day): 103.6 meq/L
- DBIL ([…], time 28 day): 0.012 mg/dL
- GLC ([…], time 28 day): 193.8 mg/dL
- IP ([…], time 28 day): 7 mg/dL
- K ([…], time 28 day): 4.5 meq/L
- LDH ([…], time 28 day): 81.8 IU/L
- Na ([…], time 28 day): 141.8 meq/L
- PL ([…], time 28 day): 117.6 mg/dL
- RALB ([…], time 28 day): 2.9 g/dL
- TBIL ([…], time 28 day): 0.038 mg/dL
- TC ([…], time 28 day): 64 mg/dL
- TG ([…], time 28 day): 41.6 mg/dL
- TP ([…], time 28 day): 6.4 g/dL
- gamma-GTP ([…], time 28 day): 1 IU/L
